# Measurements as given in US11354990B2, “Treatment of kidney diseases associated with elevated AVP” (United States Government As Represented By The Department …, priority 2017, dated 2022).
# Entries after “also recorded” stand apart in the source; their conditions may differ.
# Key:
# rodent models of ADPKD = conditions: cited from earlier work; for cystogenesis: rodent models of ADPKD, by reducing cAMP production in the kidney
# P2Y12 receptor = biological target: T1, P2Y12 receptor (Rattus norvegicus, UniProt Q9EPX4); assay: Blockade of P2Y12 receptor in primary cultures of rat hypothalamic cells: expression of AVP; type: cell-based
# T1 construct: endogenous in cells; host or cells: primary cultures of rat hypothalamic cells
# T1 sequence (Q9EPX4 whole entry): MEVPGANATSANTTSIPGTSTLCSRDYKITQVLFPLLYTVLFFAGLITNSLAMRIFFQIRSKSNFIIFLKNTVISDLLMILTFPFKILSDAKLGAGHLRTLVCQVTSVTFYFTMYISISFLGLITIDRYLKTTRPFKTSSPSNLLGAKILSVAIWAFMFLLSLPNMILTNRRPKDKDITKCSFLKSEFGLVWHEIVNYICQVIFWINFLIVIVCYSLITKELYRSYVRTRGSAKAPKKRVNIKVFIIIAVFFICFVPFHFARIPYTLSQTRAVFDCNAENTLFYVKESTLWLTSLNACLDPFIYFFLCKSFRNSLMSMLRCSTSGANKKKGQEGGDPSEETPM
# B6D2 mice = assay: Ticagrelor in diet (or clopidogrel in drinking water) for 14 days: urinary AVP, urine output and urine osmolality in mice; type: in vivo; conditions: for effects shown in FIGS. 2-5 (urine output, urine osmolality, urinary AVP): comparison with other P2Y12 receptor antagonists
# Method: The study evaluated the effect of increasing doses of ticagrelor from 0.05% to 0.25% (incremental doses of 0.05, 0.10, 0.15, 0.20 and 0.25%) administered to mice for 2 weeks and compared them with that obtained by administering increasing doses of clopidogrel bisulfate (20, 40 or 80 mg/kg bw/day). For this study adult B6D2 mice were used. Different doses of ticagrelor were administered embedded in diet. Clopidogrel bisulfate (Plavix® tablets) were powdered and dissolved in drinking water for administration. The concentration of clopidogrel in the water was adjusted on daily basis based on the water consumption by mice on the previous day.
# Rodent diets containing ticagrelor at different concentrations were prepared as follows. 15 grams of ticagrelor was shipped to MP Biomedicals (Solon, Ohio, USA) for custom preparation of 10 kg of rodent chow in pellet form containing 0.15% ticagrelor. The custom-made diet was received and was stored at +4° C. Later in the study, for the preparation of diets containing 0.20% or 0.25%, the above custom-prepared diet (containing 0.15% ticagrelor) was used as a base and the required amount of ticagrelor was added. Diets containing 0.05 and 0.10% ticagrelor were prepared de novo.
# Clopidogrel bisulfate was administered orally by mixing finely powdered Plavix® tablets (Bristol-Myers Squibb, New York, N.Y.) in drinking water. The concentration of the drug in the drinking water was adjusted daily based on the water consumption of the animals on the previous day. Three different doses (20, 40 and 80 mg/kg bw/day) were administered. Since it is not possible to work with more than 15 to 20 mice in metabolic cages at any given time, the experimental animals were handled in two batches in a staggered fashion. Urine samples were collected on day 0 (prior to the experimental period), on days 6/7 (end of the first week) and days 13/14 (end of the second week). Terminal blood samples were collected from the posterior vena cava at the time of euthanasia. Kidney tissues were collected and cortex and medulla were separated by sharp dissection and flash frozen for analysis. Within a few minutes after collection, blood samples were centrifuged at +4° C. and plasma was separated and frozen. Urinary AVP levels were assayed by ELISA.
# (§1) Different doses of ticagrelor (0.05 to 0.25%) were administered to mice embedded in standard rodent chow (w/w) for 14 days. Twenty-four hour urine samples were collected from the mice by placing them in individual plastic metabolic cages (1 mouse/cage) for two consecutive days, with free access to food and water. Urine samples in the metabolic cages were collected under a layer of light mineral oil. The volumes of urine samples collected were recorded. Urine samples were centrifuged to remove particulate matter. Clear supernatants thus obtained were used for analysis. Blood samples were collected at the time of euthanasia on day 14, as per the protocol recommended by the AstraZeneca for samples destined for the determination of plasma ticagrelor. Briefly, under isoflourane anesthesia, blood from the posterior vena cava was collected and transferred to EDTA K-coated microtubes (Microvette®, Sarstedt, Nümbrecht, Germany). Plasma was separated by centrifugation within 30 min after collection and frozen at −80° C. The frozen samples were shipped in dry ice by FedEx to AstraZeneca (Mölndal, Sweden). At AstraZeneca R&D, the plasma concentration of ticagrelor was determined by liquid chromatography tandem mass spectrometry (LC-MS/MS). FIGS. 1-5 show the data obtained.
# [1] = tested on: lithium-induced NDI in rodent models; conditions: cited from earlier work
# [2] = tested on: cAMP production in primary cultures of rat IMCD cells; assay: dDAVP-induced cAMP production in primary cultures of rat IMCD cells (EIA); type: cell-based
# Method: FIG. 7 is a graph showing the effect of ticagrelor on dDAVP-induced cAMP production in primary cultures of rat IMCD cells: Cells were incubated for 48 h with ticagrelor (5 μM). During the second 24 hours, cells were challenged with dDAVP (20 nM).
# dDAVP acting through the vasopressin V2 receptor in IMCD cells stimulates the production of cAMP (FIG. 7). In the collecting ducts in vivo, in the short-term AVP increases cellular cAMP levels to cause translocation of AQP2 protein from the subapical vesicles to apical plasma membrane, and thus increase the water permeability of the apical plasma membrane, the rate limiting barrier for transepithelial water transport. In the long-term, increased cellular cAMP levels induce transcriptional activation of AQP2 and other genes. […] Primary cultures of rat IMCD cells were prepared and incubated with desmopressin with/without ticagrelor (5 μM) as described above. For cAMP assay, the medium was gently aspirated, 200 μl of 0.1 M HCl was added to each insert and incubated for 20 min at room temperature. Then cells were scrapped off the semi-permeable support and lysed by pipetting up and down. The cell lysate was centrifuged at 1,000×g for 10 min. cAMP concentration in the supernatant was determined by an EIA kit (Cayman Chemical Co.) and normalized to the protein content of the wells (Pierce™ BCA Protein Assay Kit, Rockford, Ill.).
# [3] = Plasma concentration of ticagrelor by LC-MS/MS in mice fed ticagrelor; type: in vivo; conditions: corresponding to a dose of 0.15% or above in food, day 14
# Method: as §1
# AQP2 = assay: dDAVP-induced AQP2 mRNA expression in primary cultures of rat IMCD cells (real-time PCR); type: cell-based
# Method: (§2) FIGS. 6A-C show the effect of ticagrelor on the mRNA expression of AQP2 (A) and AQP3 (B) relative to the expression R3-actin and the effect of ticagrelor on the mRNA expression of AQP2 relative to GAPDH (C) in primary cultures of rat inner medullary collecting duct (IMCD) cells. Cells were incubated with different concentrations of ticagrelor (0.5 to 25 μM) for 48 hours. During the second 24 hours, the cells were challenged with dDAVP (20 nM). The numbers in parentheses above the bars indicate the number of culture wells.
# (§3) Primary cultures of rat inner medullary collecting duct (IMCD) cells were prepared. When the cells became 70-80% confluent, the medium was changed to relative starvation mode (low FBS), and used for testing the effect of Desmopressin (dDAVP), a V2 receptor-selective analogue of AVP, and/or ticagrelor. Cells were incubated for 48 h with ticagrelor ranging from 1.5 to 25 μM. During the second 24 hours, cells were challenged with dDAVP (20 nM). At the end of the incubation period, cells were harvested, RNA extracted, reverse transcribed and subjected to real-time PCR to determine the expression of AQP2 and AQP3 genes relative to the expression of the housekeeping genes (β-actin or GAPDH).
# (§4) Results (FIGS. 6A-C) are presented as percent of the values in control incubations without any addition of agents. FIGS. 6A-C show the effect of different concentrations of ticagrelor on dDAVP (20 nM)-induced AQP2 or AQP3 expression relative to p-actin expression in primary cultures of rat IMCD cells. Two independent assays on primary cultures of IMCD cells derived from two different rats at different times were used, and the data obtained were pooled for analysis and presentation in the graphs. Data were analyzed by analysis of variance (ANOVA) followed by Tukey-Kramer Multiple Comparison Test. The numbers in parentheses above the bars indicate the number of culture wells.
# AQP3 = assay: dDAVP-induced AQP3 mRNA expression in primary cultures of rat IMCD cells (real-time PCR); type: cell-based
# Method: as §2, §3, §4
# [4] = tested on: medullary collecting duct cells; assay: Proliferation of medullary collecting duct cells; type: cell-based; conditions: increasing concentrations of ticagrelor
# [5] = patients; long-term administration; cited from earlier work
# CYP3A4 system = CYP3A4 system (Homo sapiens, UniProt P08684); conditions: cited from earlier work
# Sequence of CYP3A4 system (P08684 whole entry): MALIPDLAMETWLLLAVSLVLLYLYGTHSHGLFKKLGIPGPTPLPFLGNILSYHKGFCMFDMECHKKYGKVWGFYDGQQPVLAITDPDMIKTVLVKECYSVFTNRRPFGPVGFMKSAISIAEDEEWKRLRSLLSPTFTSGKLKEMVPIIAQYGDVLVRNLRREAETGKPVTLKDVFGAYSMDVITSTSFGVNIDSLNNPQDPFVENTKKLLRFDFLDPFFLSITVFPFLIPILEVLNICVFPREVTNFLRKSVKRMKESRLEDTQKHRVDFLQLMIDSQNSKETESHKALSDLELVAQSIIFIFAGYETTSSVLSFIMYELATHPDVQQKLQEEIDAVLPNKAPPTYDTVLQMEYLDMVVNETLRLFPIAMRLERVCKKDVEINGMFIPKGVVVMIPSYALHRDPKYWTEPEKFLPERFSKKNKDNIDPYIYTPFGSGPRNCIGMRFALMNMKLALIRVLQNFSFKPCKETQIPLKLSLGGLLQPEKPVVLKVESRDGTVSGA
# vasopressin V2 receptor = vasopressin V2 receptor (Homo sapiens, UniProt P30518); conditions: chronic blockade of vasopressin V2 receptor; cited from earlier work
# Sequence of vasopressin V2 receptor (P30518 whole entry, species assumed): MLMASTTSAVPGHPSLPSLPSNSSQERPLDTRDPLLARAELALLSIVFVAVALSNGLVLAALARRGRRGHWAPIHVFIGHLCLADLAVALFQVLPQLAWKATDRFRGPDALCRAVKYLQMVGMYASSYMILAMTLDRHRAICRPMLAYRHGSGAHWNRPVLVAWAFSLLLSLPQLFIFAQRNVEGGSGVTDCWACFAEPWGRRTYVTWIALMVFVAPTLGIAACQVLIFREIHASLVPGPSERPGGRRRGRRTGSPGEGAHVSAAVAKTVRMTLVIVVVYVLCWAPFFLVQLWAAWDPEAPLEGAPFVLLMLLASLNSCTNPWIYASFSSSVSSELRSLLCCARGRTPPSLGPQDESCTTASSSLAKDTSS
# [6] = tested on: DBA/2FG-pcy mouse model of ADPKD; conditions: tolvaptan concentrations between 0.01% and 0.30% in food; cited from earlier work
# [7] = in vivo; cited from earlier work
# ADPKD = conditions: clinical trials; cited from earlier work
# [8] = ticagrelor 0.05 to 0.25% in food, 14 days
# [9] = different concentrations of ticagrelor 48 h, dDAVP 20 nM during second 24 h
# [10] = different concentrations of ticagrelor 48 h, dDAVP 20 nM during second 24 h, listed as Ticagrelor
# [11] = ticagrelor 2 μM, listed as Ticagrelor
# [12] = ticagrelor 10 μM, listed as Ticagrelor
smiles,measurement,setting,value
Cc1ccccc1C(=O)Nc1ccc(C(=O)N2CCCC(N(C)C)c3ccccc32)cc1 (stereo not drawn) [OPC-31260],cystogenesis,rodent models of ADPKD,consistently inhibited
Nc1c(S(=O)(=O)O)cc(Nc2ccc(Nc3ccccc3)c(S(=O)(=O)O)c2)c2c1C(=O)c1ccccc1C2=O [PSB-0739],expression of AVP,P2Y12 receptor,increased
"COC(=O)[C@H](c1ccccc1Cl)N1CCc2sccc2C1 [clopidogrel, clopidogrel bisulfate]","effects shown in FIGS. 2-5 (urine output, urine osmolality, urinary AVP)",B6D2 mice,could not be seen
same,effect on the production of AVP by the hypothalamus,"B6D2 mice; mouse, in vivo",did not have such an effect
same,lithium-induced NDI,[1],significantly ameliorate
"NC(=O)CC[C@@H]1NC(=O)[C@H](Cc2ccccc2)NC(=O)[C@H](Cc2ccc(O)cc2)NC(=O)CCSSC[C@@H](C(=O)N2CCC[C@H]2C(=O)N[C@H](CCCN=C(N)N)C(=O)NCC(N)=O)NC(=O)[C@H](CC(N)=O)NC1=O [desmopressin, Desmopressin]",increase in cellular cAMP levels,"[2]; 20 nM desmopressin, IMCD cells",3.6 fold
CC(=O)Oc1cc2c(s1)CCN(C(C(=O)C1CC1)c1ccccc1F)C2 (stereo not drawn) [prasugrel],"effects shown in FIGS. 2-5 (urine output, urine osmolality, urinary AVP)",B6D2 mice,could not be seen
CCCSc1nc(N[C@@H]2C[C@H]2c2ccc(F)c(F)c2)c2nnn([C@@H]3C[C@H](OCCO)[C@@H](O)[C@H]3O)c2n1 [ticagrelor],urinary AVP (vasopressin),B6D2 mice; 0.25% ticagrelor in the food,marked decrease
same,urine concentrating ability,B6D2 mice; 0.25% ticagrelor in the food,significant reduction
same,urinary AVP,B6D2 mice; lower doses of ticagrelor in the food,minimal effect
same,urine osmolality,B6D2 mice; [8],decrease
same,urine output,B6D2 mice; [8],increase
same,urinary AVP excretion,"B6D2 mice; ticagrelor 0.05 to 0.25% in food, 14 days, 24-hour urine, normal mice",dose-related decrease; also recorded: dose-dependent decrease
same,urinary concentrating ability,"B6D2 mice; ticagrelor 0.05 to 0.25% in food, 14 days, assessed by urine output and osmolality",dose-related decrease; also recorded: dose-dependent decrease
same,plasma ticagrelor level above which the relation to urine osmolality and AVP was more pronounced,[3],above 1.30 μM
same,effect on dDAVP-induced AQP2 mRNA expression,AQP2; [9],augmented
same,effect on dDAVP-induced AQP2 mRNA expression,AQP2; [10],tendency for concentration-dependent enhancement
same,effect on dDAVP-induced AQP2 mRNA expression,AQP2; ticagrelor 2 μM,augmentative effect was seen; also recorded: tendency to augment
same,effect on dDAVP-induced AQP2 mRNA expression,AQP2; [11],statistically significant
same,effect on dDAVP-induced increase in AQP2 expression,AQP2; ticagrelor 5 μM,did not suppress
same,effect on dDAVP-induced AQP2 mRNA expression,AQP2; ticagrelor 10 μM,more prominent
same,effect on dDAVP-induced AQP2 mRNA expression,AQP2; [12],statistically significant
same,effect on AQP2 gene expression,AQP2; ticagrelor 25 μM,suppressing the gene expression to a very low level; also recorded: almost completely suppressed
same,effect on dDAVP-induced AQP3 mRNA expression,AQP3; [9],augmented
same,effect on dDAVP-induced AQP3 mRNA expression,AQP3; [10],tendency for concentration-dependent enhancement
same,effect on dDAVP-induced AQP3 mRNA expression,AQP3; ticagrelor 2 μM,augmentative effect was seen; also recorded: tendency to augment
same,effect on dDAVP-induced AQP3 mRNA expression,AQP3; [11],statistically significant
same,effect on dDAVP-induced increase in AQP3 expression,AQP3; ticagrelor 5 μM,did not suppress
same,effect on dDAVP-induced AQP3 mRNA expression,AQP3; ticagrelor 10 μM,more prominent
same,effect on dDAVP-induced AQP3 mRNA expression,AQP3; [12],statistically significant
same,effect on AQP3 gene expression,AQP3; ticagrelor 25 μM,suppressing the gene expression to a very low level; also recorded: almost completely suppressed
same,effect on desmopressin-induced cAMP levels,"[2]; 5 μM ticagrelor, 48 h, dDAVP 20 nM",did not have any significant effect
same,proliferation of medullary collecting duct cells,[4],decrease
same,side effects,[5],uncontrolled bleeding from wounds or internal ulcers
Cc1ccccc1C(=O)Nc1ccc(C(=O)N2CCCC(O)c3cc(Cl)ccc32)c(C)c1 (stereo not drawn) [tolvaptan],cyst growth,rodent models of ADPKD; experimental models of ADPKD,slow down the cyst growth
same,cystogenesis,rodent models of ADPKD,consistently inhibited
same,side effects,[5],"severe polyuria (loss of water in the urine), nocturia (frequent urination in the night), thirst and dry mouth; also recorded: constipation, loss of appetite, dry skin, nausea, vomiting, and potential for acute liver failure"
same,metabolism,CYP3A4 system,metabolized by the CYP3A4 system
same,endogenous production of AVP,vasopressin V2 receptor,increased
same,optimum concentration in food,[6],0.10%
same,pharmacokinetics,[7],"dose-related pharmacokinetics, it is unpredictable in ADPKD patients"
same,efficacy for the treatment of ADPKD,ADPKD,established
